Laboratory results taken from patent US4130644A, “7-Acylamine-3-(sulfoalkyl substituted oxadiazolylthiomethyl) cephalosporins and pharmaceutical compositions containing them” (SmithKline Corporation, priority 1977, dated 1978).
Values after ≈ are worked out from the molar mass of the structure shown.

Key:
S. villaluz SK 70390 = test: in vitro minimum inhibitory concentration (MIC); assay type: cell-based; conditions: S. villaluz SK 70390, in vitro
Method: (§1) The compounds of Formula I have exceptional antibacterial activity against both Gram-positive and Gram-negative organisms. Minimum inhibitory concentrations (MIC's) range from 0.2 to <200 μg./ml. in in vitro testing. Test results for the compound 7-D-mandelamido-3-(5-sulfomethyl-1,3,4-oxadiazol-2-ylthiomethyl)-3-cephem- 4-carboxylic acid are given below: […]

Serrata marc. ATCC 13880 = test: in vitro minimum inhibitory concentration (MIC); assay type: cell-based; conditions: Serrata marc. ATCC 13880, in vitro
Method: as §1

E. coli HH 33779 = test: in vitro minimum inhibitory concentration (MIC); assay type: cell-based; conditions: Escherichia coli, HH33779; E. coli HH 33779, in vitro
Method: as §1

S. aureus SK 23390 = test: in vitro minimum inhibitory concentration (MIC); assay type: cell-based; conditions: Staphylococcus aureus, SK23390; S. aureus SK 23390, in vitro
Method: as §1

Salmonella ATCC 12176 = test: in vitro minimum inhibitory concentration (MIC); assay type: cell-based; conditions: ATCC12176; Salmonella ATCC 12176, in vitro
Method: as §1

Pseudo. aerug. HH 63 = test: in vitro minimum inhibitory concentration (MIC); assay type: cell-based; conditions: Pseudo. aerug. HH 63, in vitro
Method: as §1

Kleb. pneumo. SK 1200 = test: in vitro minimum inhibitory concentration (MIC); assay type: cell-based; conditions: Kleb. pneumo. SK 1200, in vitro
Method: as §1

Entero. cloacae HH 31254 = test: in vitro minimum inhibitory concentration (MIC); assay type: cell-based; conditions: Enterobacter cloacae, HH31254; Entero. cloacae HH 31254, in vitro
Method: as §1

S. aureus HH 127 = test: in vitro minimum inhibitory concentration (MIC); assay type: cell-based; conditions: Staphylococcus aureus, HH127; S. aureus HH 127, in vitro
Method: as §1

Entero aerog. ATCC 13048 = test: in vitro minimum inhibitory concentration (MIC); assay type: cell-based; conditions: Entero aerog. ATCC 13048, in vitro
Method: as §1

Shigella HH 117 = test: in vitro minimum inhibitory concentration (MIC); assay type: cell-based; conditions: HH117; Shigella HH 117, in vitro
Method: as §1

Strep. faecalis HH 34358 = test: in vitro minimum inhibitory concentration (MIC); assay type: cell-based; conditions: Enterococcus faecalis, HH34358; Strep. faecalis HH 34358, in vitro
Method: as §1

Kleb. pneumo. SK 4200 = test: in vitro minimum inhibitory concentration (MIC); assay type: cell-based; conditions: Kleb. pneumo. SK 4200, in vitro
Method: as §1

Proteus morgani 179 = test: in vitro minimum inhibitory concentration (MIC); assay type: cell-based; conditions: Proteus morgani 179, in vitro
Method: as §1

E. coli SK 12140 = test: in vitro minimum inhibitory concentration (MIC); assay type: cell-based; conditions: Escherichia coli, SK12140; E. coli SK 12140, in vitro
Method: as §1

E. coli 12140 = test: in vivo mouse protection test; conditions: Escherichia coli, sc, E. coli 12140, subcutaneous injection
Text: (§2) 4200 upon subcutaneous injection.

Kleb. pneumo. 4200 = test: in vivo mouse protection test; conditions: sc, Kleb. pneumo. 4200, subcutaneous injection
Text: as §2

Q: Which MIC (S. villaluz SK 70390) does the source give for `O=C(O)C1=C(CSc2nnc(CS(=O)(=O)O)o2)CS[C@@H]2[C@H](NC(=O)[C@H](O)c3ccccc3)C(=O)N12` [7-D-Mandelamido-3-(5-sulfomethyl-1,3,4-oxadiazol-2-ylthiomethyl)-3-cephem-4-carboxylic acid] here?
A: 200 µg/mL (≈ 369 µM)

Q: And the MIC (Serrata marc. ATCC 13880)?
A: 100 µg/mL (≈ 184 µM)

Q: What about the MIC (E. coli HH 33779) of the same compound?
A: 3.1 µg/mL (≈ 5.71 µM)

Q: What about the MIC (S. aureus SK 23390) of the same compound?
A: 1.6 µg/mL (≈ 2.95 µM)

Q: What about the MIC (Salmonella ATCC 12176) of the same compound?
A: 1.6 µg/mL (≈ 2.95 µM)

Q: What about the MIC (Pseudo. aerug. HH 63) of the same compound?
A: > 200 µg/mL

Q: And the MIC (Kleb. pneumo. SK 1200)?
A: 0.8 µg/mL (≈ 1.47 µM)

Q: What about the MIC (Entero. cloacae HH 31254) of the same compound?
A: 1.6 µg/mL (≈ 2.95 µM)

Q: And the MIC (S. aureus HH 127)?
A: 3.1 µg/mL (≈ 5.71 µM)

Q: What about the MIC (Entero aerog. ATCC 13048) of the same compound?
A: 3.1 µg/mL (≈ 5.71 µM)

Q: What about the MIC (Shigella HH 117) of the same compound?
A: 0.8 µg/mL (≈ 1.47 µM)

Q: And the MIC (Strep. faecalis HH 34358)?
A: 50 µg/mL (≈ 92.2 µM)

Q: And the MIC (Kleb. pneumo. SK 4200)?
A: 1.6 µg/mL (≈ 2.95 µM)

Q: And the MIC (Proteus morgani 179)?
A: 25 µg/mL (≈ 46.1 µM)

Q: And the MIC (E. coli SK 12140)?
A: 1.6 µg/mL (≈ 2.95 µM)

Q: What about the ED50 (E. coli 12140) of the same compound?
A: 1.56 mg/kg

Q: And the ED50 (Kleb. pneumo. 4200)?
A: 1.56 mg/kg
